Molecules are shown by their SMILES. pIC50: −log10 of the molar value.

39 compounds from patent publication US11312712B2, “Azabenzimidazoles and their use as AMPA receptor modulators” (Janssen Pharmaceutica NV, priority 2015, dated 2022) can be followed below.

The target in the experiment is GluA1o-γ8 (GRIA1o-CACNG8 fusion construct) (Homo sapiens (Human), UniProt P42261+Q8WXS5). The experiment in a line: Calcium flux assay (FLIPR), inhibition of TARP γ8 dependent AMPA receptor activity. In kind it is cell-based. As to conditions: GluA1o-γ8 (GRIA1o-CACNG8 fusion) in HEK293 cells, calcium flux after 15 μM glutamate. The method in brief: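 Glutamate (15 μM) was added to a stable HEK293 line carrying the GluA1o–γ8 fusion, which had been preincubated with compound and calcium dye in HEPES buffer, pH 7.4. Normalized FLIPR fluorescence (no compound vs 10 μM CP465022) was fitted with four parameters; pIC50 is the midpoint's negative log.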
GluA1o-γ8 (GRIA1o-CACNG8 fusion construct), sequence (P42261 other isoform, or with tags, fused parts or gaps): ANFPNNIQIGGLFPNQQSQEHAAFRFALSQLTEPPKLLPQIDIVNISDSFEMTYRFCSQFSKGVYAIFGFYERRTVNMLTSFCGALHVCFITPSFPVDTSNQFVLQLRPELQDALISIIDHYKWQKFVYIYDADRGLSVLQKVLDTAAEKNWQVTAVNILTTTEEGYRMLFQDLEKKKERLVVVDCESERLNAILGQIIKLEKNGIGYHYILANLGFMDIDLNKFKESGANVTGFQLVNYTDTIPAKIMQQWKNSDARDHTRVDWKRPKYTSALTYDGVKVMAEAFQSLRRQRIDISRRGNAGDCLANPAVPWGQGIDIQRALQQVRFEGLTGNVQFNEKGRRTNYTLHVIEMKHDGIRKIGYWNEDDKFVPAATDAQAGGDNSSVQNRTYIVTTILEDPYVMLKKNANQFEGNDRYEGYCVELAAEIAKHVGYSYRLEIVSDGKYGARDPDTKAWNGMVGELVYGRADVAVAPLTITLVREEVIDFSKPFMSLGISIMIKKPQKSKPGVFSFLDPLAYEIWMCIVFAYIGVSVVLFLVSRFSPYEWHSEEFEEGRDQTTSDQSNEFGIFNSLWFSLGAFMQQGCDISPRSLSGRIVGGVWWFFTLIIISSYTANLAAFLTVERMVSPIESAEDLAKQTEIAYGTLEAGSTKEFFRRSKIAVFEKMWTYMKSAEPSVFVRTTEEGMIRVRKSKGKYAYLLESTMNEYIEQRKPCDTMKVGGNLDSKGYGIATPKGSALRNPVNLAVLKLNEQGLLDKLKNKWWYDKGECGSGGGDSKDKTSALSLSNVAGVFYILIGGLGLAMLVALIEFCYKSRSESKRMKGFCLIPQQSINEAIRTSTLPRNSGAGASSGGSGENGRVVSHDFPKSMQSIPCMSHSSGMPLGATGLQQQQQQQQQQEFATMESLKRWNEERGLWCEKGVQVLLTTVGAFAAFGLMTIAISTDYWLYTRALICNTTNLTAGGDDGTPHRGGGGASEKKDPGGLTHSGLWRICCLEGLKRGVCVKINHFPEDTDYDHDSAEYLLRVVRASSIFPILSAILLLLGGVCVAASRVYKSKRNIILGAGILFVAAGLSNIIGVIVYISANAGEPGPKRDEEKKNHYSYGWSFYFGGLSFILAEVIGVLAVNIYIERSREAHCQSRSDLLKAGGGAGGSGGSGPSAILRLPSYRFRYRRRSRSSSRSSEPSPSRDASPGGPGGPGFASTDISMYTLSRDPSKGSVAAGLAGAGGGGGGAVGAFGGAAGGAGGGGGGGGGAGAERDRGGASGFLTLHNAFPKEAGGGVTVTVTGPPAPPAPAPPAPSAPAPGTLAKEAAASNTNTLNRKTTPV
On the technique in general: A change in cytosolic calcium serves as a functional read-out for many receptors and channels.
Consider `Cc1cc(-n2c(C)cc3cccnc32)cc2c1NC(=O)C2` [Example 353, 7-Methyl-5-(2-methyl-1H-pyrrolo[2,3-b]pyridin-1-yl)indolin-2-one], for which the negative-log IC50 (pIC50) is 7.90. Turning to `Cc1ccc2nc(C3CC3)n(-c3ccc4[nH]c(=O)sc4c3)c2n1` [Example 143, 6-(2-Cyclopropyl-5-methyl-imidazo[4,5-b]pyridin-3-yl)-3H-1,3-benzothiazol-2-one], the negative logarithm of the IC50 (pIC50) was 9.00. To `FC(F)(F)c1ccc2nc(C(F)(F)F)n(-c3cnc4[nH]ccc4c3)c2n1` [Example 293, 3-(1H-Pyrrolo[2,3-b]pyridin-5-yl)-2,5-bis(trifluoromethyl)imidazo[4,5-b]pyridine] belongs 7.40; to `O=c1[nH]c2ccc(-n3cnc4ccc(C(F)(F)F)nc43)cc2s1` [Example 190, 6-(5-(Trifluoromethyl)-3H-imidazo[4,5-b]pyridin-3-yl)benzo[d]thiazol-2(3H)-one], 6.50; to `O=C1Cc2cc(-n3c(-c4ccc(F)cc4)cc4ccc(C(F)(F)F)nc43)ccc2N1` [Example 398, 5-[2-(4-Fluorophenyl)-6-(trifluoromethyl)pyrrolo[2,3-b]pyridin-1-yl]indolin-2-one], 10.20. As for `O=C1Cc2cc(-n3c(C4CC4)nc4ccc(C(F)F)nc43)ccc2N1` [Example 140, 5-[2-Cyclopropyl-5-(difluoromethyl)imidazo[4,5-b]pyridin-3-yl]indolin-2-one], the negative logarithm of the IC50 (pIC50) was 8.60.

Consider `Cc1ccc2nc(C(F)(F)F)n(-c3ccc4c(c3)CC(=O)N4)c2n1` [Example 139, 5-[5-Methyl-2-(trifluoromethyl)imidazo[4,5-b]pyridin-3-yl]indolin-2-one], for which the negative-log IC50 (pIC50) was 7.40. Consider `FC(F)(F)c1ccc2nc(C(F)(F)F)n(-c3cnc4[nH]ncc4c3)c2n1` [Example 204, 3-(1H-pyrazolo[3,4-b]pyridin-5-yl)-2,5-bis(trifluoromethyl)imidazo[4,5-b]pyridine], for which the negative-log IC50 (pIC50) is 7.90. The result for `CC(C)(C)c1nc2ccc(C(F)(F)F)nc2n1-c1ccc2[nH]ccc2c1` [Example 59, 2-tert-Butyl-3-(1H-indol-5-yl)-5-(trifluoromethyl)imidazo[4,5-b]pyridine] reads 6.60; that for `O=C1Cc2cc(-n3c(-c4ccccc4)nc4cccnc43)ccc2N1` [Example 34, 5-(2-Phenylimidazo[4,5-b]pyridin-3-yl)indolin-2-one], 7.90; that for `COc1nc2ccc(C(F)(F)F)nc2n1-c1ccc2[nH]ncc2c1` [Example 129, 3-(1H-Indazol-5-yl)-2-methoxy-5-(trifluoromethyl)imidazo[4,5-b]pyridine], 7.80. The result for `Cc1ccc2cc(C(C)C)n(-c3ccc4c(c3)CC(=O)N4)c2n1` [Example 342, 5-(2-Isopropyl-6-methyl-pyrrolo 2,3-bpyridin-1-yl)indolin-2-one] reads 9.60. The result for `Cc1ccc2nc(-c3ccnc(F)c3)n(-c3cc(Cl)c4[nH]ncc4c3)c2n1` [Example 327, 3-(7-Chloro-1H-indazol-5-yl)-2-(2-fluoro-4-pyridyl)-5-methyl-imidazo[4,5-b]pyridine] reads 9.60.

As for `[O-][n+]1cc(-n2c(C(F)(F)F)nc3ccc(C(F)(F)F)nc32)cc2cn[nH]c21` [Example 205, 3-(7-Oxido-1H-pyrazolo[3,4-b]pyridin-7-ium-5-yl)-2,5-bis(trifluoromethyl)imidazo[4,5-b]pyridine], the pIC50 is 6.40. To `Cc1ccc2nc(C)n(-c3ccc4c(c3)CC(=O)N4)c2n1` [Example 181, 5-(2,5-Dimethylimidazo[4,5-b]pyridin-3-yl)indolin-2-one] belongs 5.60.

With `O=C1Cc2cc(-n3c(C(F)(F)F)nc4ccc(C(F)F)nc43)cc(F)c2N1` [Example 325, 5-[5-(Difluoromethyl)-2-(trifluoromethyl)imidazo[4,5-b]pyridin-3-yl]-7-fluoro-indolin-2-one], the pIC50 is 9.50. As to `Clc1ccc2nc(-c3ccccc3)n(-c3ccc4[nH]ncc4c3)c2n1` [Example 10, 5-Chloro-3-(1H-indazol-5-yl)-2-phenyl-imidazo[4,5-b]pyridine], the pIC50 was 9.00. To `O=c1[nH]c2ccc(-n3c(-c4ccccc4)nc4c(C(F)F)ccnc43)cc2s1` [Example 69, 6-[7-(Difluoromethyl)-2-phenyl-imidazo[4,5-b]pyridin-3-yl]-3H-1,3-benzothiazol-2-one] belongs 8.90; to `CCOc1nc2ccc(C(F)(F)F)nc2n1-c1ccc2[nH]c(=O)sc2c1` [Example 240, 6-[2-Ethoxy-5-(trifluoromethyl)imidazo[4,5-b]pyridin-3-yl]-3H-1,3-benzothiazol-2-one], 9.00; to `CCc1cc2cccnc2n1-c1cc(C)c2c(c1)CC(=O)N2` [Example 403, 5-(2-Ethylpyrrolo[2,3-b]pyridin-1-yl)-7-methyl-indolin-2-one], 8.90. To `OCCCc1cc(-n2c(C(F)(F)F)nc3ccc(C(F)(F)F)nc32)cc2cn[nH]c12` [Example 220, 3-(5-(2,5-Bis(trifluoromethyl)-3H-imidazo[4,5-b]pyridin-3-yl)-1H-indazol-7-yl)propan-1-ol] belongs 6.80; to `Cc1cc(-n2c(C(C)C)nc3ccc(C(F)(F)F)nc32)cc2c1NC(=O)C2` [Example 310, 5-[2-Isopropyl-5-(trifluoromethyl)imidazo[4,5-b]pyridin-3-yl]-7-methyl-indolin-2-one], 9.80; to `COc1ccc2nc(-c3ccccc3)n(-c3ccc4[nH]c(=O)sc4c3)c2n1` [Example 18, 6-(5-Methoxy-2-phenyl-imidazo[4,5-b]pyridin-3-yl)-3H-1,3-benzothiazol-2-one], 8.40. For `COC(=O)CCc1nc2ccc(C(F)(F)F)nc2n1-c1ccc2c(c1)CC(=O)N2` [Example 183, Methyl 3-[3-(2-oxoindolin-5-yl)-5-(trifluoromethyl)imidazo[4,5-b]pyridin-2-yl]propanoate], the pIC50 was 5.70. The result for `Cc1ccc2cc(-c3ccc(F)cc3)n(-c3ccc4c(c3)CC(=O)N4)c2n1` [Example 382, 5-[2-(4-Fluorophenyl)-6-methyl-pyrrolo[2,3-b]pyridin-1-yl]indolin-2-one] reads 9.40; that for `CCOc1nc2ccc(C(F)(F)F)nc2n1-c1ccc2[nH]nc(F)c2c1` [Example 196, 2-Ethoxy-3-(3-fluoro-1H-indazol-5-yl)-5-(trifluoromethyl)imidazo[4,5-b]pyridine], 7.60.

Take `O=c1[nH]c2ccc(-n3c(C4CC4)nc4ccc(C(F)(F)F)nc43)cc2[nH]1` [Example 106, 5-[2-Cyclopropyl-5-(trifluoromethyl)imidazo[4,5-b]pyridin-3-yl]-1,3-dihydrobenzimidazol-2-one]: the negative logarithm of the IC50 (pIC50) was 8.60.

Take `Cc1cc(-n2c(C3(F)CC3)nc3ccc(C(F)(F)F)nc32)cc2cn[nH]c12` [Example 259, 2-(1-Fluorocyclopropyl)-3-(7-methyl-1H-indazol-5-yl)-5-(trifluoromethyl)imidazo[4,5-b]pyridine]: the pIC50 is 10.10.

Take `Cc1cc(-n2c(C(C)C)nc3ccc(C(F)(F)F)nc32)cc2cn[nH]c12` [Example 198, 2-Isopropyl-3-(7-methyl-1H-indazol-5-yl)-5-(trifluoromethyl)imidazo[4,5-b]pyridine]: the negative-log IC50 (pIC50) was 10.50. To `O=c1[nH]c2ccc(-n3c(-c4ccccc4)nc4ccc(F)nc43)cc2s1` [Example 15, 6-(5-Fluoro-2-phenyl-imidazo[4,5-b]pyridin-3-yl)-3H-1,3-benzothiazol-2-one] belongs 8.50. To `Cc1cc(-n2c(C(F)(F)F)nc3cccnc32)cc2cn[nH]c12` [Example 317, 3-(7-Methyl-1H-indazol-5-yl)-2-(trifluoromethyl)imidazo[4,5-b]pyridine] belongs 8.00; to `CC(C)(C)c1ccc2nc(C(F)(F)F)n(-c3ccc4[nH]ncc4c3)c2n1` [Example 171, 5-tert-Butyl-3-(1H-indazol-5-yl)-2-(trifluoromethyl)imidazo[4,5-b]pyridine], 8.50; to `Cc1cc(-n2c(C3CC3)nc3ccc(C(F)(F)F)nc32)cc2cn[nH]c12` [Example 255, 2-Cyclopropyl-3-(7-methyl-1H-indazol-5-yl)-5-(trifluoromethyl)imidazo[4,5-b]pyridine], 10.50. To `Oc1n[nH]c2ccc(-n3c(C(F)F)nc4ccc(C(F)(F)F)nc43)cc12` [Example 296, 5-[2-(Difluoromethyl)-5-(trifluoromethyl)imidazo[4,5-b]pyridin-3-yl]-1H-indazol-3-ol] belongs 6.80. As for `C[C@@H](F)c1nc2ccc(C(F)(F)F)nc2n1-c1cc(Cl)c2[nH]ncc2c1` (single isomer, unassigned) [Example 408, (*R)-3-(7-Chloro-1H-indazol-5-yl)-2-(1-fluoroethyl)-5-(trifluoromethyl)-3H-imidazo[4,5-b]pyridine], the pIC50 was 10.00.

Regarding `FC(F)(F)c1ccc2nc(C3(F)CC3)n(-c3cc(Cl)c4[nH]ncc4c3)c2n1` [Example 258, 3-(7-Chloro-1H-indazol-5-yl)-2-(1-fluorocyclopropyl)-5-(trifluoromethyl)imidazo[4,5-b]pyridine], the negative-log IC50 (pIC50) is 10.20. For the compound `O=C1Cc2cc(-n3c(C4CCCCC4)nc4ccc(C(F)(F)F)nc43)ccc2N1` [Example 48, 5-[2-Cyclohexyl-5-(trifluoromethyl)imidazo[4,5-b]pyridin-3-yl]indolin-2-one], the pIC50 was 9.20. To `Cc1cc(-n2c(-c3ccc(F)cc3)nc3ccc(C(F)(F)F)nc32)cc2cn[nH]c12` [Example 195, 2-(4-Fluorophenyl)-3-(7-methyl-1H-indazol-5-yl)-5-(trifluoromethyl)imidazo[4,5-b]pyridine] belongs 10.90; to `O=C1Cc2cc(-n3c(-c4ccc(F)cc4)nc4ccc(C(F)(F)F)nc43)ccc2N1` [Example 33, 5-[2-(4-Fluorophenyl)-5-(trifluoromethyl)imidazo[4,5-b]pyridin-3-yl]indolin-2-one], 9.20.

Usually pIC50 stands for −log10 of the IC50, conventionally taken in molar units.
